# “And” between values parts separate entries of the source, which are not always exact repeats. Equal values may be shown once.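 Values below derive from 48-hour exposures of cells grown in 96-well plates, with endpoints linearly interpolated between the two concentrations bracketing the appropriate inhibition level. Abbreviation: GI50, concentration required for 50% inhibition of growth. TGI: total growth inhibition.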
# Key:
# Assay in all cases: NCI anticancer screen, dose series, 48 h
# HOP-92 NSCLC = test system: HOP-92 NSCLC
# SF-539 CNS = test system: SF-539 CNS
# NCI-H23 lung = test system: NCI-H23 lung
# EKVX NSCLC = test system: EKVX NSCLC
# KM12 colon = test system: KM12 colon
# UO-31 renal = test system: UO-31 renal
# ACHN renal = test system: ACHN renal
# NCI-H522 lung = test system: NCI-H522 lung
# SK-MEL-28 melanoma = test system: SK-MEL-28 melanoma
# CCRF-CEM leukemia = test system: CCRF-CEM leukemia
Structure (SMILES),TGI (HOP-92 NSCLC),TGI (SF-539 CNS),TGI (NCI-H23 lung),TGI (EKVX NSCLC),TGI (KM12 colon),TGI (UO-31 renal),TGI (ACHN renal),TGI (NCI-H522 lung),TGI (SK-MEL-28 melanoma),TGI (CCRF-CEM leukemia),GI50 (HOP-92 NSCLC),GI50 (EKVX NSCLC),GI50 (KM12 colon),GI50 (UO-31 renal),GI50 (ACHN renal),GI50 (NCI-H522 lung),GI50 (SK-MEL-28 melanoma),GI50 (CCRF-CEM leukemia),GI50 (SF-539 CNS),GI50 (NCI-H23 lung)
C1CN(P2(N3CC3)=NP(N3CC3)(N3CC3)=NP(N3CC3)(N3CC3)=N2)CCO1 (stereo not drawn),> 100 µM,> 100 µM,> 100 µM,> 100 µM,> 100 µM,> 100 µM,> 100000 nM,> 100 µM,> 100 µM,> 100 µM,–,–,–,–,–,–,–,–,–,–
CC1=NOC(=O)/C1=C/c1ccc([N+](=O)[O-])cc1,> 100 µM,> 100 µM,> 100 µM,> 100 µM,> 100 µM,> 100 µM,> 100000 nM,> 100 µM,> 100 µM,> 100 µM,–,–,–,–,–,–,–,–,–,–
C/C(CC(=O)Nc1ccccc1C)=N/NS(=O)(=O)c1ccc(C)cc1,> 100 µM,> 100 µM,> 100 µM,> 100 µM,> 100 µM,> 100 µM,> 100000 nM,> 100 µM,> 100 µM,> 100 µM,–,–,–,–,–,–,–,–,–,–
CO[C@H]1C[C@](C)(O)Cc2cc3c(c(O)c21)C(=O)c1c(O)cc2c(c1C3=O)O[C@@H]1O[C@@]2(C)[C@H](O)[C@@H](N(C)C)[C@@H]1O,7.76 µM and 2.96 µM,2.3 µM and 2.89 µM,2.03 µM and 6.54 µM,6.5 µM and 13 µM,3.18 µM and 11.4 µM,2.85 µM and 7.08 µM,1310 nM and 1900 nM,3.67 µM and 8.17 µM,3.35 µM and 19.4 µM,1.22 µM and 4.21 µM,1810 nM,2400 nM,1.39 µM,1330 nM,107 nM,1420 nM,1620 nM,180 nM,–,–
Cc1c(N)nc(C(CC(N)=O)NCC(N)C(N)=O)nc1C(=O)NC(C(=O)NC(C)C(O)C(C)C(=O)NC(C(=O)NCCc1nc(-c2nc(C(=O)NCCCNC(C)c3ccccc3)cs2)cs1)C(C)O)C(OC1OC(CO)C(O)C(O)C1OC1OC(CO)C(O)C(OC(N)=O)C1O)c1cnc[nH]1 (stereo not drawn),3.51 µM and 25.8 µM,0.476 µM and 0.681 µM,8.37 µM and 64.6 µM,50 µM and > 100 µM,50 µM and > 100 µM,–,189 nM and 1480 nM,20 µM and 44.3 µM,50 µM,50 µM and > 100 µM,227 nM,> 100000 nM,44.1 µM,2900 nM,–,4100 nM,–,7500 nM,37.6 nM,3.31 µM
CCCCCCCC/C=C1\CCC(CN2CCOCC2)C1=O (stereo not drawn),33 µM,14.7 µM,24.4 µM,32.9 µM,12.4 µM,16.6 µM,30100 nM,6.79 µM,21.2 µM,10.9 µM,–,–,–,–,–,–,–,–,–,–
Cc1cc(C)c(C(=O)O)c(SSc2cc(C)cc(C)c2C(=O)O)c1,> 100 µM,> 100 µM,> 100 µM,> 100 µM,> 100 µM,> 100 µM,> 100000 nM,> 100 µM,> 100 µM,> 100 µM,–,–,–,–,–,–,–,–,–,–
CC(C)c1cccc(O)c(=O)c1,> 100 µM,–,> 75 µg/mL and > 78.8 µM,–,> 75 µg/mL and > 100 µM,35.5 µg/mL and > 71.1 µM,18.3 µg/mL and 48.9 µM,28 µg/mL and > 73.1 µM,–,–,–,1.45 µg/mL,2.41 µg/mL,2.58 µg/mL,1.75 µg/mL,5.16 µg/mL,0.138 µg/mL,0.312 µg/mL,4.51 µg/mL,35 µg/mL
O=c1oc2cc(OC/C(=N/O)c3ccc(F)cc3)ccc2c2ccccc12,52.8 µM,36.4 µM,34.2 µM,42.5 µM,53.5 µM,35.2 µM,41600 nM,37 µM,37.2 µM,> 100 µM,23600 nM,20900 nM,21.2 µM,18700 nM,20400 nM,17500 nM,20000 nM,23000 nM,20100 nM,19.1 µM
COc1cc(NS(C)(=O)=O)ccc1NCc1c2ccccc2nc2ccccc12,92.7 µM,65.2 µM,> 100 µM,> 100 µM,> 100 µM,> 100 µM,> 100000 nM,77.3 µM,> 100 µM,33.5 µM,–,–,–,–,–,–,–,–,–,–
ClCc1ccccc1Cn1cnc2c(Cl)ncnc21,4.27 µM,24.2 µM,4.34 µM,11 µM,33.2 µM,10.4 µM,6100 nM,7.24 µM,5.48 µM,3.24 µM,1490 nM,3110 nM,16.6 µM,2650 nM,2700 nM,1820 nM,2310 nM,1280 nM,10700 nM,2.02 µM
CCOC(=O)C12C(C(=O)OC)=C(C)N(NC(=O)Nc3ccccc3)C1(N)N(NC(=O)Nc1ccccc1)C(C)=C2C(=O)OC (stereo not drawn),66.3 µM,37.9 µM,> 100 µM,> 100 µM,47.8 µM,> 100 µM,> 100000 nM,55.3 µM,> 88.7 µM,59 µM,–,–,–,–,–,–,–,–,–,–
O=C(/C=C1\C(=O)N(Cc2ccccc2)c2ccccc21)c1ccc(OCCN2CCCCC2)cc1,2.77 µM,4.14 µM,14.5 µM,7.48 µM,20.8 µM,2.87 µM,2980 nM,3.21 µM,4.36 µM,5.9 µM,1360 nM,2360 nM,5.9 µM,1540 nM,1630 nM,1710 nM,2090 nM,1830 nM,2070 nM,3.47 µM
Cc1nc(N)nc(N)c1CCCc1ccccc1,46.6 µM,> 100 µM,> 100 µM,> 100 µM,> 100 µM,> 100 µM,> 100000 nM,> 100 µM,86.1 µM,> 100 µM,–,–,–,–,–,–,–,–,–,–
CCC1(OC(=O)CN)C(=O)OCc2c1cc1n(c2=O)Cc2cc3ccccc3nc2-1 (stereo not drawn),–,0.191 µM and 0.0253 µM,0.15 µM and 0.0424 µM,17.4 µM,0.754 µM and 4.01 µM,0.174 µM,183 nM and 62.8 nM,0.59 µM and 0.624 µM,38.7 µM,0.534 µM and 0.677 µM,97.1 nM,164 nM,0.022 µM,–,4.76 nM,36.2 nM,851 nM,1.16 nM,37.8 nM,0.0191 µM

# Reference: PubChem BioAssay (NCI)
